Data set [1] can be described thus: Acute toxicity (LD50, method of Lichtfield and Wilcoxon). Particulars: mouse, in vivo, mice. Here is the method:
The compounds of the invention were administered by intragastric or by intravenous route to Charles River stock mice. The lethal doses for 50% (LD50) were determined graphically according to the method of Lichtfield and Wilcoxon (J.Pharmacol.Exp. Therap. […], 96, 99).

The test system of data set [2] is Charles River stock mice. Nature of the data set: Hypobaric anoxia test on mice (survival time). The format is in vivo. Here is the method: Charles River stock mice of the same sex, weighting about 20±2 g are shared into three lots of 10 animals each. The lots 1 and 2 comprise treated animals, i.e. those having received either a substance to be tested. The third lot comprises control animals.
The compounds examined are administered p.o. 30 minutes before the experiment.
The animals are placed in an atmosphere improverished in oxygen by creating a partial vacuum (190 mm Hg, corresponding to 5.25% oxygen), in about 30 seconds.
The survival time of the mice is measured with a chronometer. Said time is increased by the agents capable of enhancing oxygenation of tissues and more particularly brain oxygenation.
Under the above described conditions, the dose which provides a 50% increase of the average survival time of the animals may be expressed as the 50% effective dose (here abbreviated as ED50).

Data set [3] deals with vertebral flow rate. Nature of the data set: Vertebral flow rate in anesthetized dogs. The format is in vivo. The settings on record: 5.5 mg/kg i.v. Here is the method: (§1) In addition, a substantial increase of vertebral flow rate was noticed upon dogs previously anesthetized with sodium pentobarbital (30 mg/kg i.v.). More particularly a does of 5.5 mg/kg i.v. of N-ethylchanodesethylapovincamine causes a 50 to 100% increase of vertebral flow rate. Said effect on the flow rate is selective, the increase of femoral flow rate being negligible.

Data set [4] relates to femoral flow rate. Nature of the data set: Femoral flow rate in anesthetized dogs. The format is in vivo. The settings on record: 5.5 mg/kg i.v.; dogs anesthetized with sodium pentobarbital (30 mg/kg i.v.). How it is done:
as §1

`CCN1CCc2c3n(c4ccccc24)C(C(=O)OC)=CCC31` (stereo not drawn) [N-ethylchanodesethylapovincamine]: the 50% lethal dose (LD50) in data set [1] (iv) worked out at 55 mg/kg; in data set [1] (po, p.o. (intragastric)), 1120 mg/kg. Further, in data set [2] (Mus musculus, po, p.o. 30 minutes before the experiment, 190 mm Hg, corresponding to 5.25% oxygen, read-out: ED50 (dose which provides a 50% increase of the average survival time)), the 50% effective dose (ED50) turned out to be 225 mg/kg. Also, the LD50/ED50 in data set [2] (p.o.) is recorded as 5. The “effect on the flow rate (vertebral versus femoral)” value in data set [3] is recorded as “selective”. Besides, the “increase of femoral flow rate” value in data set [4] is “negligible”.

The LD50 is the dose at which mortality reaches 50%. Lower therefore signals a more toxic substance. A word on the ED50: it is the dose at which the effect has come halfway, by size or by number of responders.
